Results as given in PMC4979471 (Cell Death Discovery, 2015).
Read-outs that look alike come from different tables or passages of the source.

Columns and labels:
Assay in all cases: Kinase selectivity, P33-radiolabeled assay
Assay type in all cases: biochemical
Settings in all cases: 10 μM ATP
ULK1 = biological target: T1, ULK1 (Homo sapiens, UniProt O75385)
T1 construct: purchased Reaction Biology Corp
T1 sequence (O75385 1-1050): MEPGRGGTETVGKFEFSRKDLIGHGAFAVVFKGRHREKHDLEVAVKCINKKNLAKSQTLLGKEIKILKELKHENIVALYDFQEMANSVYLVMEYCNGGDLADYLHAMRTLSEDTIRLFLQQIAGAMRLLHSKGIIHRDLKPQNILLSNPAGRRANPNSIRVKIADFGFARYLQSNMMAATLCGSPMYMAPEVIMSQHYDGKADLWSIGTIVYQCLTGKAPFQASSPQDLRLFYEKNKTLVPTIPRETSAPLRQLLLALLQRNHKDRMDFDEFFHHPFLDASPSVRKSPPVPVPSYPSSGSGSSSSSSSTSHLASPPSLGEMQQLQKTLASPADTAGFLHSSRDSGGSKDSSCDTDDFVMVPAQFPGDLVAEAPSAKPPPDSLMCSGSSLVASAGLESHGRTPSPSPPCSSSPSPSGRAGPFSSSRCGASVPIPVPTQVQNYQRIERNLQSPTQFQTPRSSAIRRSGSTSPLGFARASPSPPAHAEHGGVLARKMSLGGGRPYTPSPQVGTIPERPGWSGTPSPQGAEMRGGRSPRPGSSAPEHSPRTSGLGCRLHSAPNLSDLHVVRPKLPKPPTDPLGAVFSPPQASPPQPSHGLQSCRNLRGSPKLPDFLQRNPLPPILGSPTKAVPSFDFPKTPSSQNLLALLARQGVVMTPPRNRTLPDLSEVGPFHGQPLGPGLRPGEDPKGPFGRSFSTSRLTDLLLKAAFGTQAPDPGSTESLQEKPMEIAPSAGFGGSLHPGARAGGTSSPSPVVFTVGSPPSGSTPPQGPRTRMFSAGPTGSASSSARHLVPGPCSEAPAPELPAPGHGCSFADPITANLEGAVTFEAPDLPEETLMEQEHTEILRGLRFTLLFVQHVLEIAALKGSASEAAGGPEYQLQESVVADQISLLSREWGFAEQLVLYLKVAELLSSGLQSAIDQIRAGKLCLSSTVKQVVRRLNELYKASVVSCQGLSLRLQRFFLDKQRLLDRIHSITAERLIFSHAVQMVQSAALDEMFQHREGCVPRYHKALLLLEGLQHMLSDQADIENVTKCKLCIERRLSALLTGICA
In short: (§1)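 Activity relative to DMSO controls (%) was measured for compound at 10 μM. Assays ran at 10 μM ATP, in duplicate.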

JNK2 = biological target: T2, JNK2 (Homo sapiens, UniProt P45984)
T2 construct: purchased Reaction Biology Corp
In short: as §1

PAK1 = biological target: T3, PAK1 (Homo sapiens, UniProt Q13153)
T3 construct: purchased Reaction Biology Corp
In short: as §1

SYK = biological target: T4, SYK (Homo sapiens, UniProt P43405)
T4 construct: purchased Reaction Biology Corp
In short: as §1

RIPK3 = biological target: T5, RIPK3 (Homo sapiens, UniProt Q9Y572)
T5 construct: purchased Reaction Biology Corp
In short: as §1

TEC = biological target: T6, TEC (Homo sapiens, UniProt P42680)
T6 construct: purchased Reaction Biology Corp
T6 sequence (P42680 1-631): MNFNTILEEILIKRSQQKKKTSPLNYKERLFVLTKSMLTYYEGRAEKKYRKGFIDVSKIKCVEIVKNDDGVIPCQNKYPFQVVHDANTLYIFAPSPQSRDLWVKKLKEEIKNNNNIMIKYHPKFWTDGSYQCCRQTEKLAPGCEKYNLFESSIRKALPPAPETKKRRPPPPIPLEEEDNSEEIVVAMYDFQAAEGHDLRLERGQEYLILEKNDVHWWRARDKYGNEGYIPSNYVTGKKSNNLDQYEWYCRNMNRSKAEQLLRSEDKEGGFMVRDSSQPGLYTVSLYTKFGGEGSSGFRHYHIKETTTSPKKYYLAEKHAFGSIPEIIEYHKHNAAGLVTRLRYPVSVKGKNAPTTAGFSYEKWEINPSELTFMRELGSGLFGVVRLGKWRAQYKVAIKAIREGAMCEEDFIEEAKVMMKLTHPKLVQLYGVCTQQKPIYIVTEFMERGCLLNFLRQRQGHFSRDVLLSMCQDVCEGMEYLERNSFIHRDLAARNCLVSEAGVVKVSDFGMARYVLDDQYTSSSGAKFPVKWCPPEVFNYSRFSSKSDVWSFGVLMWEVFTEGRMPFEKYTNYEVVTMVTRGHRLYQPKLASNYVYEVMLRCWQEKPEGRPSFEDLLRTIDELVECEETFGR
In short: as §1

ROCK1 = biological target: T7, ROCK1 (Homo sapiens, UniProt Q13464)
T7 construct: purchased Reaction Biology Corp
In short: as §1

[1] = read-out: % Enzyme Activity (relative to DMSO controls) AVG
[2] = read-out: % Enzyme Activity (relative to DMSO controls) Data 1
[3] = read-out: % Enzyme Activity (relative to DMSO controls) Data 2

T3 sequence (Q13153 whole entry): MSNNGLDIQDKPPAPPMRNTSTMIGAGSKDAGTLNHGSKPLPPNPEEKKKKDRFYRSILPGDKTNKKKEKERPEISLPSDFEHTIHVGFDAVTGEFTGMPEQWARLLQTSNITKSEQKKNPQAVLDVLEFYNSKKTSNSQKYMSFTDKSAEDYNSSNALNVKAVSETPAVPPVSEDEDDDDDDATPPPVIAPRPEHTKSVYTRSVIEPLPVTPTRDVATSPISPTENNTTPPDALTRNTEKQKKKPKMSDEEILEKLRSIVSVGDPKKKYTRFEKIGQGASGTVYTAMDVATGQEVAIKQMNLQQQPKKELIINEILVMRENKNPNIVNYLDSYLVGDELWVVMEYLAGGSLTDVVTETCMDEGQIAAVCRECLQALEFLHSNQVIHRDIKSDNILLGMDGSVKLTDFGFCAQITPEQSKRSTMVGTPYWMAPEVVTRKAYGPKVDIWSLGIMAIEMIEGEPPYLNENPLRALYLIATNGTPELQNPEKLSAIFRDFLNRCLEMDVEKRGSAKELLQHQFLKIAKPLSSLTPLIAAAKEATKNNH
T2 sequence (P45984 whole entry): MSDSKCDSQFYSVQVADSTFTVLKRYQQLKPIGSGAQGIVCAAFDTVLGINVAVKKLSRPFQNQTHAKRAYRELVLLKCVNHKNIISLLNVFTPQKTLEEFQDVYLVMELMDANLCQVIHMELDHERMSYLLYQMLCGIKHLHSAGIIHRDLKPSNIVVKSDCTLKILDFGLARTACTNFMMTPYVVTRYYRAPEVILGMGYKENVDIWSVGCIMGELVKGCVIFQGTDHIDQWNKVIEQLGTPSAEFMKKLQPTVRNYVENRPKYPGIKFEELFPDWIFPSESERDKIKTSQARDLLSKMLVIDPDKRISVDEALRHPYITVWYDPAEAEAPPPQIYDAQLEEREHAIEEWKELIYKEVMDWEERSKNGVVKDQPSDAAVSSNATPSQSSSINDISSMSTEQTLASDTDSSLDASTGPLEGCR
T5 sequence (Q9Y572 whole entry): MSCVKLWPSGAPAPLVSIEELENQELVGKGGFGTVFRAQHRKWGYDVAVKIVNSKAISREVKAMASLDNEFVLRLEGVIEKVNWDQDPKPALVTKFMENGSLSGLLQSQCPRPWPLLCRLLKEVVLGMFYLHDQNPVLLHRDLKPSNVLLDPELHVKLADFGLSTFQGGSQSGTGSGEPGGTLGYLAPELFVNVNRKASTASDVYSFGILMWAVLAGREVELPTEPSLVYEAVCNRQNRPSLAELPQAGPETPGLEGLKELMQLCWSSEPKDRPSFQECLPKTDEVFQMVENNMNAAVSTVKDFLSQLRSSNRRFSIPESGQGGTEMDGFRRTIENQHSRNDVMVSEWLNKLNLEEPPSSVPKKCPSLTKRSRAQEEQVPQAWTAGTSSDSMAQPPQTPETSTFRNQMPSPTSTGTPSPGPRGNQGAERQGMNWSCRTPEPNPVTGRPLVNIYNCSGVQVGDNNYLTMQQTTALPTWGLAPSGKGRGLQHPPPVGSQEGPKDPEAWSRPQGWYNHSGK
T7 sequence (Q13464 whole entry): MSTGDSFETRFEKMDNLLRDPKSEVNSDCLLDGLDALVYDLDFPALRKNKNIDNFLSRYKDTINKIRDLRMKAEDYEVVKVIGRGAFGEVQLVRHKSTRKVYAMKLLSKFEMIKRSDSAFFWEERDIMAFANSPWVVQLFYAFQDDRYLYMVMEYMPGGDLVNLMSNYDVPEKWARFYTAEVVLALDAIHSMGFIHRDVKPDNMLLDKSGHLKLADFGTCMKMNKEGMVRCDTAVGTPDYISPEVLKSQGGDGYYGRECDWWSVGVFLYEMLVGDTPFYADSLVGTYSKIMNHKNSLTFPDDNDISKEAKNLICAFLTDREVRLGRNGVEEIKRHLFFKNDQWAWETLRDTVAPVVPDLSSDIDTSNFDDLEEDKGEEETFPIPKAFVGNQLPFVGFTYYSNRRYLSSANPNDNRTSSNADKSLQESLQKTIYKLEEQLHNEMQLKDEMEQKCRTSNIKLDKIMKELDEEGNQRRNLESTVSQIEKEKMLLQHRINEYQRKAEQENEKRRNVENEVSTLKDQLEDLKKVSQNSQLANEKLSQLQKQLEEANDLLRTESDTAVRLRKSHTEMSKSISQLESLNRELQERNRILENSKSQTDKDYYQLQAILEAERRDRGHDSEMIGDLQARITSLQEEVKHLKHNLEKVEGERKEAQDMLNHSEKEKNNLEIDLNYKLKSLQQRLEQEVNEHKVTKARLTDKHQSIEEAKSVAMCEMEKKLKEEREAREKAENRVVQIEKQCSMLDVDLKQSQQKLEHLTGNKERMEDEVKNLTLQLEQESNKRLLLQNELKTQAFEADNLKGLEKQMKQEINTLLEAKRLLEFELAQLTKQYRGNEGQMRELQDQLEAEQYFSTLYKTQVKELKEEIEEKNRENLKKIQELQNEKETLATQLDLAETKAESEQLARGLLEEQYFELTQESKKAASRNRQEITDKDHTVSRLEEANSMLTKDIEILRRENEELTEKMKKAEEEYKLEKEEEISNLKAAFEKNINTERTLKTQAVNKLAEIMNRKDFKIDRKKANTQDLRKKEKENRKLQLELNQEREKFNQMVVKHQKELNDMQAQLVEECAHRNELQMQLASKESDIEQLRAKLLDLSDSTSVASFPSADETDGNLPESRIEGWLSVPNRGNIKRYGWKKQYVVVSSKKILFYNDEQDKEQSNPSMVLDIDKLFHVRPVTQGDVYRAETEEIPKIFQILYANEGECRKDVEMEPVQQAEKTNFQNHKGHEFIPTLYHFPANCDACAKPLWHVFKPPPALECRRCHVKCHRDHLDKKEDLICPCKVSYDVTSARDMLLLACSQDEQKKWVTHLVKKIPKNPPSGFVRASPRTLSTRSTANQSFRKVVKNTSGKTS

CC(C)(C)C(=O)N1N=CC[C@H]1c1ccccc1 [GSK′963]
remaining activity at 10 µM (ULK1; [1]): 106%
remaining activity at 10 µM (ULK1; [2]): 106%
remaining activity at 10 µM (ULK1; [3]): 106%
remaining activity at 10 µM (JNK2; [1]): 100%
remaining activity at 10 µM (JNK2; [2]): 96.4%
remaining activity at 10 µM (JNK2; [3]): 104%
remaining activity at 10 µM (PAK1; [1]): 92.8%
remaining activity at 10 µM (PAK1; [2]): 92.5%
remaining activity at 10 µM (PAK1; [3]): 93%
remaining activity at 10 µM (SYK; [1]): 102%
remaining activity at 10 µM (SYK; [2]): 106%
remaining activity at 10 µM (SYK; [3]): 97.6%
remaining activity at 10 µM (RIPK3; [1]): 99.3%
remaining activity at 10 µM (RIPK3; [2]): 100%
remaining activity at 10 µM (RIPK3; [3]): 98.7%
remaining activity at 10 µM (TEC; [1]): 104%
remaining activity at 10 µM (TEC; [2]): 98.7%
remaining activity at 10 µM (TEC; [3]): 109%
remaining activity at 10 µM (ROCK1; [1]): 105%
remaining activity at 10 µM (ROCK1; [2]): 103%
remaining activity at 10 µM (ROCK1; [3]): 106%
